Molecules are shown by their SMILES.

The target in this assay is T1, MAGL protein (Homo sapiens, UniProt Q99685).
T1 sequence (Q99685 1-303): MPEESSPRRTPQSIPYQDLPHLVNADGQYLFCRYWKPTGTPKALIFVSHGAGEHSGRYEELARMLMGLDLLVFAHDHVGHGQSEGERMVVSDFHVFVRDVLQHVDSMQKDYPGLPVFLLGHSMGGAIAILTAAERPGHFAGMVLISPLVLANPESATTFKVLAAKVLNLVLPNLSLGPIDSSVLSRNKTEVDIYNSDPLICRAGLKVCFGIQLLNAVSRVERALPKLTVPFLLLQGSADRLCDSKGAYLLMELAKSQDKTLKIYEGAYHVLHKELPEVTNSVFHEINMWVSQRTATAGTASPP
Put plainly: 2-AG assay: MAGL inhibitory activity by hydrolysis of 2-arachidonoylglycerol to arachidonic acid, followed by mass spectrometry. Format: biochemical. As to conditions: 8 μM 2-arachidonoylglycerol, 15 min preincubation, 30 min reaction at RT, RapidFire MS readout. The gist of the method:
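Activity was measured by RapidFire SPE–triple-quad MS as the ratio of arachidonic acid to d8-arachidonic acid after 2-AG hydrolysis (8 μM substrate, 30 min, RT, acetonitrile quench). Compounds, tested from 12.5 μM down to […], were first preincubated 15 min with MAGL in TRIS/EDTA/Tween-20 buffer containing 2.5% DMSO.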

In general, IC50 refers to the concentration at which inhibition is half-maximal. A higher IC50 goes with weaker potency in that assay. As for `O=C(N1CC(c2ccc(C3(C(F)(F)F)CC3)cn2)C1)N1CC2(CC(c3nc(C4(O)CC4)n[nH]3)C2)C1` [compound 471], the half-maximal inhibitory concentration (IC50) was found to be 20.3 nM.
`Cn1cc(CN2CC3(C2)CN(C(=O)N2CC4(CC(c5nc(C6CC6)n[nH]5)C4)C2)C3)c(C(F)(F)F)n1` [compound 472] returned a half-inhibitory concentration (IC50) of 17.7 nM.
Under `Cn1ncc(CC2CC3(C2)CN(C(=O)N2CC4(CC(c5nc(C6(F)CC6)n[nH]5)C4)C2)C3)c1C(F)(F)F` [compound 475] stands 0.08 nM; under `N#Cc1cc(C(F)(F)F)ccc1CC1CC2(C1)CN(C(=O)N1CC3(CC(c4nnc(C5(O)CC5)[nH]4)C3)C1)C2` [compound 477], 0.08 nM; under `Cn1cc(C(F)(F)F)c(CC2CC3(C2)CN(C(=O)N2CC4(CC(c5nc(C6CC6)n[nH]5)C4)C2)C3)n1` [compound 479], 0.18 nM.
Next, `N#Cc1ccc(=O)n(CC2CC3(C2)CN(C(=O)N2CC4(CC(c5nc(C6CC6)n[nH]5)C4)C2)C3)c1` [compound 480]: 12.1 nM.
Compound `CS(=N)(=O)c1cc(C(F)(F)F)ccc1CC1CC2(C1)CN(C(=O)N1CC3(CC(c4nc(C5CC5)n[nH]4)C3)C1)C2` (stereo not drawn) [compound 481] came in with an IC50 of 1.06 nM.
Next, `O=C(N1CC2(CC(c3nc(C4(O)CC4)n[nH]3)C2)C1)N1CC2(CCN(Cc3cccc(S(=O)(=O)C(F)(F)F)c3)C2)C1` [compound 482]: 3.39 nM; `CC(C)(C)c1coc(CN2CC3(C2)CN(C(=O)N2CC4(CC(c5nc(C6CC6)n[nH]5)C4)C2)C3)n1` [compound 483]: 2.13 nM.
The compound `O=C(N1CC2(CC(c3nc(C4(O)CC4)n[nH]3)C2)C1)N1CC2(CC(S(=O)(=O)c3cccc(OC(F)(F)F)c3)C2)C1` [compound 484] showed an IC50 of 89.2 nM.
For the compound `O=C(N1CC2(CC(c3nc(C4CC4)n[nH]3)C2)C1)N1CC2(CN(Cc3nnc(C(F)(F)F)s3)C2)C1` [compound 485], inhibition was half-maximal at 64.5 nM (IC50).
`N#Cc1ccc(CC2CC3(C2)CN(C(=O)N2CC4(CC(c5nc(C6CC(F)(F)C6)n[nH]5)C4)C2)C3)c(F)c1` [compound 486] had a concentration for half-maximal inhibition (IC50) of 10.6 nM.
In turn, `CC(C)(C)c1nnc(CN2CC3(C2)CN(C(=O)N2CC4(CC(c5nc(C6CC6)n[nH]5)C4)C2)C3)s1` [compound 487] showed an IC50 of 9.82 nM. The IC50 values of the last two compounds are within 1.5-fold of each other.
With `O=C(N1CC2(CC(Cc3nc(C(F)(F)F)cs3)C2)C1)N1CC2(CC(c3nc(C4CC(F)(F)C4)n[nH]3)C2)C1` [compound 489], 75.3 nM corresponded to half-maximal inhibition (IC50).
For the compound `O=C(N1CC(C23CC(c4ccc(OC(F)(F)F)cc4)(C2)C3)C1)N1CC2(CC(c3nc(C4CC4)n[nH]3)C2)C1` [compound 490], the IC50 was found to be 0.05 nM.
The compound `Cn1nc(CC2CC3(C2)CN(C(=O)N2CC4(CC(c5nc(C6(O)CC6)n[nH]5)C4)C2)C3)cc1C(F)(F)F` [compound 491] came in with a half-inhibitory concentration (IC50) of 0.34 nM.
`CC(C)(C)Cc1nnc(C23CC(C4CN(C(=O)N5CC6(CC(c7nc(C8(F)CC8)n[nH]7)C6)C5)C4)(C2)C3)s1` [compound 492]: the IC50 is 3.84 nM. This IC50 is about 11-fold higher than that of the compound before.
In turn, `CS(=N)(=O)c1cccc(CC2CC3(C2)CN(C(=O)N2CC4(CC(c5nc(C6CC(F)(F)C6)n[nH]5)C4)C2)C3)c1` (stereo not drawn) [compound 493] had a half-inhibitory concentration (IC50) of 956 nM.
As for `O=C(N1CC2(CC(Cc3n[nH]c(C(F)(F)F)n3)C2)C1)N1CC2(CC(c3nc(C4CC4)n[nH]3)C2)C1` [compound 494], it took 3.69 nM to reach half-maximal inhibition (IC50). Against the preceding compound, the IC50 is about 260-fold lower.
Next, `O=C(N1CC2(CC(Cc3cc(C(F)F)[nH]n3)C2)C1)N1CC2(CC(c3nc(C4CC(F)(F)C4)n[nH]3)C2)C1` [compound 495]: 140 nM.
`N=S(=O)(c1ccc(C2CN(C(=O)N3CC4(CC(c5nc(C6(O)CC6)n[nH]5)C4)C3)C2)cc1)C1CC1` (stereo not drawn) [compound 496]: half-maximal inhibition (IC50) required 37 nM.
Under `O=C(N1CC2(CC(c3cncc(F)c3)C2)C1)N1CC2(CC(c3nnc(C4CC4)[nH]3)C2)C1` [compound 497] stands 22.3 nM; under `CC(C)(C)Cc1nnc(C23CC(C4CCN(C(=O)N5CC6(CC(c7nc(C8(O)CC8)n[nH]7)C6)C5)CC4)(C2)C3)o1` [compound 498], 195 nM.
Under `N#Cc1cc(OC2CC3(C2)CN(C(=O)N2CC4(CC(c5nc(C6CC6)n[nH]5)C4)C2)C3)ccc1C(F)(F)F` [compound 499] stands 3.46 nM; under `O=C(N1CC2(CC(Cc3ccc(OC(F)(F)F)nc3)C2)C1)N1CC2(CC(c3nc(C4CC4)n[nH]3)C2)C1` [compound 501], 0.92 nM.
`O=C(N1CC(OCc2ccc(S(=O)(=O)C(F)(F)F)cc2F)C1)N1CC2(CC(c3nc(C4CC(F)(F)C4)n[nH]3)C2)C1` [compound 502]: half-maximal inhibition (IC50) required 262 nM.
Consider `O=C(N1CC(c2cnc(NCC3(C(F)(F)F)CC3)cn2)C1)N1CC2(CC(c3nc(C4(F)CC4)n[nH]3)C2)C1` [compound 503], for which the half-inhibitory concentration (IC50) stood at 0.69 nM.
The compound `Cc1nc(C(F)(F)F)c(CN2CC3(C2)CN(C(=O)N2CC4(CC(c5nc(C6CC6)n[nH]5)C4)C2)C3)s1` [compound 504] displayed an IC50 of 1.04 nM.
Compound `O=C(N1CC2(CC(Cc3ccc(S(=O)(=O)C4CC4)cc3)C2)C1)N1CC2(CC(c3nc(C4(O)CC4)n[nH]3)C2)C1` [compound 505] yielded a half-maximal inhibitory concentration (IC50) of 1.3 nM. The IC50 values of the last two compounds are within 1.5-fold of each other.
Take `Cn1nc(CC2CC3(C2)CN(C(=O)N2CC4(CC(c5nc(C6CC6)n[nH]5)C4)C2)C3)cc1C(F)(F)F` [compound 506]: the half-inhibitory concentration (IC50) was 0.12 nM.
On to `O=C(N1CC2(CCN(Cc3ncc(C(F)F)s3)CC2)C1)N1CC2(CC(c3nc(C4CC4)n[nH]3)C2)C1` [compound 507], for which the IC50 worked out at 5.84 nM.
`O=C(N1CC2(CC(Cc3ncc(C(F)(F)F)cc3F)C2)C1)N1CC2(CC(c3nc(C4CC(F)(F)C4)n[nH]3)C2)C1` [compound 508] registered an IC50 of 6.66 nM.
Next, `N#Cc1cc(F)ccc1C12CC(C3CN(C(=O)N4CC5(CC(c6nc(C7(O)CC7)n[nH]6)C5)C4)C3)(C1)C2` [compound 509]: 5.16 nM.
The compound `N#Cc1cccn(CC2CC3(C2)CN(C(=O)N2CC4(CC(c5nc(C6CC6)n[nH]5)C4)C2)C3)c1=O` [compound 510] had an IC50 of 20.4 nM. Against the preceding compound, the IC50 is about 4-fold higher.
Under `Cn1nc(CC2CC3(C2)CN(C(=O)N2CC4(CC(c5nc(C6CC(F)(F)C6)n[nH]5)C4)C2)C3)cc1C(F)(F)F` [compound 511] stands 20.8 nM.
On to `N#Cc1ncc(CC2CC3(C2)CN(C(=O)N2CC4(CC(c5nc(C6(F)CC6)n[nH]5)C4)C2)C3)cc1C(F)(F)F` [compound 512], for which the half-inhibitory concentration (IC50) came out at 0.67 nM.
`O=C(N1CC2(CC(c3nc(C4CC4)n[nH]3)C2)C1)N1CC2(CN(Cc3cnn(C(F)(F)F)c3)C2)C1` [compound 513] came in with an IC50 of 31.9 nM. Against the preceding compound, the IC50 is about 48-fold higher.
`O=C(N1CC(C23CC(c4cc(C5CC5)n[nH]4)(C2)C3)C1)N1CC2(CC(c3nc(C4CC4)n[nH]3)C2)C1` [compound 514] came in with an IC50 of 0.47 nM.
In turn, `O=C(N1CC2(CC(Cc3ccc(C(F)(F)F)cn3)C2)C1)N1CC2(CC(c3nc(C4(F)CC4)n[nH]3)C2)C1` [compound 517] came in with an IC50 of 0.15 nM.
`O=C(N1CC2(CC(Cc3cc(F)cc(S(=O)(=O)C(F)(F)F)c3)C2)C1)N1CC2(CC(c3nc(C4(O)CC4)n[nH]3)C2)C1` [compound 518] returned an IC50 of 0.22 nM.
Under `O=C(N1CCC(c2nn(CCO)c3ccc(C(F)(F)F)cc23)CC1)N1CC2(CC(c3nnc(C4CC4)[nH]3)C2)C1` [compound 519] stands 13.9 nM; under `O=C(N1CC2(CC(Oc3cncc(C(F)(F)F)c3)C2)C1)N1CC2(CC(c3nc(C4CC4)n[nH]3)C2)C1` [compound 520], 2.23 nM; under `O=C(N1CC2(CC(c3nc(C4CC4)n[nH]3)C2)C1)N1CC2(CN(Cc3nnnn3CC(F)(F)F)C2)C1` [compound 521], 78.6 nM.
In the case of `O=C(N1CC2(CC(Cc3ccc(C(F)(F)F)cc3F)C2)C1)N1CC2(CC(c3nc(C4(F)CC4)n[nH]3)C2)C1` [compound 522], the half-inhibitory concentration (IC50) came out at 0.05 nM.
`O=C(N1CC2(CC(Cn3cc(C(F)(F)F)cn3)C2)C1)N1CC2(CC(c3nc(C4(F)CC4)n[nH]3)C2)C1` [compound 523] came in with a half-inhibitory concentration (IC50) of 0.53 nM. Compared with the last compound, the IC50 is about 11-fold higher.
Consider `O=C(N1CC2(CC(Cc3nc(C(F)(F)F)c[nH]3)C2)C1)N1CC2(CC(c3nc(C4CC4)n[nH]3)C2)C1` [compound 524], for which half-maximal inhibition (IC50) was put at 1.4 nM.
As to `O=C(N1CC2(CCN(Cc3cc(C(F)(F)F)[nH]n3)CC2)C1)N1CC2(CC(c3nc(C4CC4)n[nH]3)C2)C1` [compound 525], it took 7.08 nM to reach half-maximal inhibition (IC50).
`O=C(N1CC2(CC(Cc3ccc(S(=O)(=O)C(F)(F)F)cc3)C2)C1)N1CC2(CC(c3nc(C4CC(F)(F)C4)n[nH]3)C2)C1` [compound 526] returned an IC50 of 4.6 nM.
Compound `O=C(N1CC(C23CC(Cc4ccc(C(F)(F)F)cc4F)(C2)C3)C1)N1CC2(CC(c3nc(C4CC4)n[nH]3)C2)C1` [compound 527] had an IC50 of 0.98 nM.
For `O=C(N1CC(C23CC(S(=O)(=O)CC4(C(F)(F)F)CC4)(C2)C3)C1)N1CC2(CC(c3nc(C4CC4)n[nH]3)C2)C1` [compound 528], the IC50 amounted to 497 nM.
Under `O=C(N1CC(C23CC(c4cccc(OC(F)(F)F)c4)(C2)C3)C1)N1CC2(CC(c3nc(C4(O)CC4)n[nH]3)C2)C1` [compound 529] stands 0.31 nM; under `Cn1ncc(CC2CC3(C2)CN(C(=O)N2CC4(CC(c5nc(C6CC(F)(F)C6)n[nH]5)C4)C2)C3)c1C(F)(F)F` [compound 530], 13.9 nM; under `O=C(N1CC2(CC(c3nc(C4(F)CC4)n[nH]3)C2)C1)N1CC2(CN(Cc3cc(C(F)(F)F)ns3)C2)C1` [compound 531], 7.53 nM.
In turn, `N=S(=O)(c1cccc(CC2CC3(C2)CN(C(=O)N2CC4(CC(c5nc(C6(O)CC6)n[nH]5)C4)C2)C3)c1)C(F)(F)F` (stereo not drawn) [compound 532] returned a 50% inhibitory concentration (IC50) of 0.21 nM.

The values are drawn from US20250099448A1, “HETEROCYCLIC COMPOUNDS” (Hoffmann-La Roche Inc., priority 2022, published 2025).
